Laboratory results from PMC12278908, “Genome integrity sensing by the broad-spectrum Hachiman antiphage defense complex” (Cell, 2024).

Biological target: T1, HamAB (Escherichia coli, UniProt A0A426EXV0)
T1 construct: gene DU321_04165; native locus coexpressed in E. coli BL21-AI; only HamA tagged 10xHis-MBP-TEV, TEV-treated; 1:1 heterodimer; with Hachiman antiphage defense system nuclease HamA (DUF1837 domain-containing protein)
T1 sequence (A0A426EXV0 1-1174): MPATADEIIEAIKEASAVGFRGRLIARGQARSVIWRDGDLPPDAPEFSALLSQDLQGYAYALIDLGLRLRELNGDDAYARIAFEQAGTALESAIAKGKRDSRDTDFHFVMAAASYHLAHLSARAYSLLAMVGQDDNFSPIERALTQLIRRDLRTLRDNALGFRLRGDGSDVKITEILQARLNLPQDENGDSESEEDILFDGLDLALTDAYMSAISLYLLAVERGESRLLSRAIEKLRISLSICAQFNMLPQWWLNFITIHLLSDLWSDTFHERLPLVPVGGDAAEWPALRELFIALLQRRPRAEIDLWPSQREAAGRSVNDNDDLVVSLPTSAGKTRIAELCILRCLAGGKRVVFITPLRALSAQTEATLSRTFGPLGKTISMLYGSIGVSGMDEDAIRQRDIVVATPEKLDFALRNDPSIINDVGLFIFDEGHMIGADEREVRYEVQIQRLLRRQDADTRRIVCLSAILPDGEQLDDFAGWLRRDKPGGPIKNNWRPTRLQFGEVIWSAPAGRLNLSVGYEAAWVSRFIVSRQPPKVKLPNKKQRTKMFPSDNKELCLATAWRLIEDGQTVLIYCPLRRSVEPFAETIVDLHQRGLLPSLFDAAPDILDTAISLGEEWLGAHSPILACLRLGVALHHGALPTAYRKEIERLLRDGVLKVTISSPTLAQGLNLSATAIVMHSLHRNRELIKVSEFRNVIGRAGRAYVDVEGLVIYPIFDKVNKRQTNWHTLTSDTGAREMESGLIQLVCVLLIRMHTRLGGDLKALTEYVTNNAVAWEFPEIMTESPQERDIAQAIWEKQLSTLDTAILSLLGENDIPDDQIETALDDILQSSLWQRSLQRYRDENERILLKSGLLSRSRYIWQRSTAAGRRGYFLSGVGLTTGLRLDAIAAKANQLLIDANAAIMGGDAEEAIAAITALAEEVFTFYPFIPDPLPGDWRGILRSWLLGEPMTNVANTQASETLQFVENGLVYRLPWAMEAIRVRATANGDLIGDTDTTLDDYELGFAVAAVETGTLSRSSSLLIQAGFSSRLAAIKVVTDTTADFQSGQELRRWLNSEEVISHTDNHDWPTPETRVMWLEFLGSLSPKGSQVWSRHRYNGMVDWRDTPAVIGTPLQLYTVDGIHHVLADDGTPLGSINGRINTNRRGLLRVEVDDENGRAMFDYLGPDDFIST
T1 sequence (Q6XGE5 1-259 partner): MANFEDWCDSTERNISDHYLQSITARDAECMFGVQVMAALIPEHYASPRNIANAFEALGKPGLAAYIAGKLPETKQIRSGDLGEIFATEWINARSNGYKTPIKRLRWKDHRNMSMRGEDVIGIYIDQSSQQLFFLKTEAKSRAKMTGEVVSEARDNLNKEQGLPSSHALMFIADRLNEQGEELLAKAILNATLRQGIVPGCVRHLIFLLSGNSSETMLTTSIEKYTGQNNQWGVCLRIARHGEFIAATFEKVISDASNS
Test: malachite green phosphate release ATPase assay
Type: biochemical
Conditions: with or without supercoiled plasmid DNA; 1 mM ATP, 2 mM MgSO4, pH 8.8, 37 °C

Compound: Nc1ncnc2c1ncn2[C@@H]1O[C@H](COP(=O)(O)OP(=O)(O)OP(=O)(O)O)[C@@H](O)[C@H]1O [ATP]
- malachite green phosphate release ATPase assay: ATPase assays with HamB, HamAB, and HamA*B in the presence of plasmid DNA
